The record followed here is patent US20220073536A1 (Rigel Pharmaceuticals, Inc., priority 2003, published 2022).

This experiment concerns cultured human mast cells (CHMC). Put plainly: CHMC low cell density IgE activation: tryptase assay. It counts as cell-based. A digest of the protocol:
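Low-density CHMC, 1000-1500 cells/well in MT; 1 hr 37 °C; anti-IgE challenge 30 min 37 °C; supernatant tryptase via fluorogenic substrate, 30 min RT.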

Where [1] appears, read: low cell density CHMC, IgE activation, tryptase release, 8 pt, read-out: LD Tryptase, CHMC, IgE, 8 pt.
The mark [2] stands for this setting: low cell density CHMC, IgE activation, tryptase release, 3 pt, read-out: LD Tryptase, CHMC, IgE, 3 pt.
Setting [3] is: Homo sapiens, Mast cell, low cell density CHMC, IgE activation, tryptase release, 3 pt, read-out: LD Tryptase, CHMC, IgE, 3 pt.
The mark [4] stands for this setting: Homo sapiens, Mast cell, low cell density CHMC, IgE activation, tryptase release, 8 pt, read-out: LD Tryptase, CHMC, IgE, 8 pt.
Setting [5] is: Homo sapiens, Mast cell, low cell density, IgE activation, 3 pt, read-out: LD Tryptase, CHMC, IgE, 3 pt.
Where [6] appears, read: Homo sapiens, Mast cell, low cell density, IgE activation, 8 pt, read-out: LD Tryptase, CHMC, IgE, 8 pt.

Where a name gives a salt, the structure may show the parent alone. Read-outs that look alike come from different tables or passages of the source. A value given as a limit tells only on which side of the number the result lay.

As for `CC(C)(C)C(=O)NCCCn1ncc2cc(Nc3ncc(F)c(Nc4ccc5c(n4)NC(=O)C(C)(C)O5)n3)ccc21` [Compound 852, N4-(2,2-Dimethyl-3-oxo-4H-5-pyrido[1,4]oxazin-6-yl)-5-fluoro-N2-[1-(3-pivalamidopropyl)indazol-5-yl]-2,4-pyrimidinediamine], the IC50 under setting [1] is less than 10 µM.

`COc1ccc(Nc2nc(Nc3ccc4c(cnn4CCCN4C(=O)CCC4=O)c3)ncc2F)cc1Cl` [Compound 853, N4-(3-Chloro-4-methoxyphenyl)-5-fluoro-N2-[1-[3-(N-succinimidopropyl)]indazol-5-yl]-2,4-pyrimidinediamine]: the IC50 runs as follows: under setting [2], less than 10 µM; under setting [1], less than 10 µM.

For the molecule `O=C1CCC(=O)N1CCCn1ncc2cc(Nc3ncc(F)c(Nc4ccc(Cl)c(Cl)c4)n3)ccc21` [Compound 854, N4-(3,4-Dichlorophenyl)-5-fluoro-N2-[1-[3-(N-succinimidopropyl)]indazol-5-yl]-2,4-pyrimidinediamine], the IC50 is less than 10 µM under setting [2] and more than 10 µM under setting [1].

On to `CC1(C)Oc2ccc(Nc3nc(Nc4ccc5c(cnn5CCCN5C(=O)CCC5=O)c4)ncc3F)cc2NC1=O` [Compound 855, N4-(2,2-Dimethyl-3-oxo-4H-benz[1,4]oxazin-6-yl)-5-fluoro-N2-[1-[3-(N-succinimidopropyl)]indazol-5-yl]-2,4-pyrimidinediamine], for which the IC50 is less than 10 µM under setting [2] and less than 10 µM under setting [1].

As to `C[C@@H]1Oc2ccc(Nc3nc(Nc4ccc5c(cnn5CCCN5C(=O)CCC5=O)c4)ncc3F)cc2NC1=O` [Compound 856, (S)-5-Fluoro-N4-(2-methyl-3-oxo-2H,4H-benz[1,4]oxazin-6-yl)-N2-[1-[3-(N-succinimidopropyl)]indazol-5-yl]-2,4-pyrimidinediamine], the IC50 is less than 10 µM under setting [2] and less than 10 µM under setting [1].

Consider `CC1(C)Oc2ccc(Nc3nc(Nc4ccc5c(cnn5CCCN5C(=O)CCC5=O)c4)ncc3F)nc2NC1=O` [Compound 857, N4-(2,2-Dimethyl-3-oxo-4H-5-pyrid[1,4]oxazin-6-yl)-5-fluoro-N2-[1-[3-(N-succinimidopropyl)]indazol-5-yl]-2,4-pyrimidinediamine], for which the IC50 is less than 10 µM under setting [2] and less than 10 µM under setting [1].

On to `COc1ccc(Nc2nc(Nc3ccc4c(cnn4CCCN4C(=O)CCCC4=O)c3)ncc2F)cc1Cl` [Compound 858, N4-(3-Chloro-4-methoxyphenyl)-N2-[1-[3-(2,6-dioxopiperidino]propyl)indazol-5-yl]-5-fluoro-2,4-pyrimidinediamine], for which the IC50 by setting is: under setting [3], less than 10 µM; under setting [4], less than 10 µM.

Consider `O=C1CCCC(=O)N1CCCn1ncc2cc(Nc3ncc(F)c(Nc4ccc(Cl)c(Cl)c4)n3)ccc21` [Compound 859, N4-(3,4-Dichlorophenyl)-N2-[1-[3-(2,6-dioxopiperidino)propyl]indazol-5-yl]-5-fluoro-2,4-pyrimidinediamine], for which the IC50 was less than 10 µM under setting [3] and less than 10 µM under setting [4].

As to `CC1(C)Oc2ccc(Nc3nc(Nc4ccc5c(cnn5CCCN5C(=O)CCCC5=O)c4)ncc3F)cc2NC1=O` [Compound 860, N4-(2,2-Dimethyl-3-oxo-4H-benz[1,4]oxazin-6-yl)-N2-[1-[3-(2,6-dioxopiperidino]propyl)indazol-5-yl]-5-fluoro-2,4-pyrimidinediamine], the IC50 reads like this: under setting [3], less than 10 µM; under setting [4], less than 10 µM.

`C[C@@H]1Oc2ccc(Nc3nc(Nc4ccc5c(cnn5CCCN5C(=O)CCCC5=O)c4)ncc3F)cc2NC1=O` [Compound 861, (S)-N2-[1-[3-(2,6-Dioxopiperidino]propyl)indazol-5-yl]-5-fluoro-N4-(2-methyl-3-oxo-2H,4H-benz[1,4]oxazin-6-yl)-2,4-pyrimidinediamine]: the IC50 by setting is: under setting [3], less than 10 µM; under setting [4], less than 10 µM.

For the molecule `CC1(C)Oc2ccc(Nc3nc(Nc4ccc5c(cnn5CCCN5C(=O)CCCC5=O)c4)ncc3F)nc2NC1=O` [Compound 862, N4-(2,2-Dimethyl-3-oxo-4H-5-pyrid[1,4]oxazin-6-yl)-N2-[1-[3-(2,6-dioxopiperidino]propyl)indazol-5-yl]-5-fluoro-2,4-pyrimidinediamine], the IC50 is, setting by setting: under setting [2], less than 10 µM; under setting [1], less than 10 µM.

On to `Fc1cnc(Nc2ccc3[nH]c(C(F)(F)F)nc3c2)nc1Nc1ccc(Cl)c(Cl)c1` [Compound 864, N4-(3,4-Dichlorophenyl)-5-fluoro-N2-(2-trifluoromethyl-1H-benzimidazol-5-yl)-2,4-pyrimidinediamine Ethanesulfonic Acid Salt], for which the IC50 (Homo sapiens, Mast cell, read-out: LD Tryptase, CHMC, IgE, 3 pt) is more than 10 µM.

Regarding `CCOCCCn1ncc2cc(Nc3ncc(F)c(Nc4ccc(OC)c(Cl)c4)n3)ccc21` [Compound 871, N4-(3-Chloro-4-methoxyphenyl)-N2-[1-(3-ethoxypropyl)indazol-5-yl]-5-fluoro-2,4-pyrimidinediamine], the IC50 runs as follows: under setting [5], less than 10 µM; under setting [6], less than 10 µM.

Turning to `CCOCCCn1ncc2cc(Nc3ncc(F)c(Nc4ccc(Cl)c(Cl)c4)n3)ccc21` [Compound 872, N4-(3,4-Dichlorophenyl)-N2-[1-(3-ethoxypropyl)indazol-5-yl]-5-fluoro-2,4-pyrimidinediamine], the IC50 under setting [5] is less than 10 µM.

For `CCOCCCn1ncc2cc(Nc3ncc(F)c(Nc4ccc5c(c4)NC(=O)C(C)(C)O5)n3)ccc21` [Compound 873, N4-(2,2-Dimethyl-3-oxo-4H-benz[1,4]oxazin-6-yl)-N2-[1-(3-ethoxypropyl)indazol-5-yl]-5-fluoro-2,4-pyrimidinediamine], the IC50 runs as follows: under setting [5], less than 10 µM; under setting [6], less than 10 µM.

For the molecule `CCOCCCn1ncc2cc(Nc3ncc(F)c(Nc4ccc5c(c4)NC(=O)[C@H](C)O5)n3)ccc21` [Compound 874, (S)-N2-[1-(3-Ethoxypropyl)indazol-5-yl]-5-fluoro-N4-(2-methyl-3-oxo-2H,4H-benz[1,4]oxazin-6-yl)-2,4-pyrimidinediamine], the IC50 under setting [5] is less than 10 µM and the IC50 under setting [6] is less than 10 µM.

On to `CCOCCCn1ncc2cc(Nc3ncc(F)c(Nc4ccc5c(n4)NC(=O)C(C)(C)O5)n3)ccc21` [Compound 875, N4-(2,2-Dimethyl-3-oxo-4H-5-pyrid[1,4]oxazin-6-yl)-N2-[1-(3-ethoxypropyl)indazol-5-yl]-5-fluoro-2,4-pyrimidinediamine], for which the IC50 is, setting by setting: (low cell density, IgE activation, 3 pt, read-out: LD Tryptase, CHMC, IgE, 3 pt) less than 10 µM; (low cell density, IgE activation, 8 pt, read-out: LD Tryptase, CHMC, IgE, 8 pt) less than 10 µM.

As for `COc1ccc(Nc2nc(Nc3cc(OC)c(OC)c(OC)c3)ncc2F)nc1Cl` [Compound 876, N4-(2-Chloro-3-methoxypyrid-6-yl)-5-fluoro-N2-(3,4,5-trimethoxyphenyl)-2,4-pyrimidinediamine], the IC50 was less than 10 µM under setting [5] and less than 10 µM under setting [6].

Consider `COc1ccc(Nc2ncc(F)c(Nc3ccc(OC)c(Cl)n3)n2)cc1OC` [Compound 877, N4-(2-Chloro-3-methoxypyrid-6-yl)-N2-(3,4-dimethoxyphenyl)-5-fluoro-2,4-pyrimidinediamine], for which the IC50 under setting [5] is less than 10 µM.

As for `COc1ccc(Nc2ncc(F)c(Nc3ccc(OC)c(Cl)n3)n2)cc1Cl` [Compound 878, N2-(3-Chloro-4-methoxyphenyl)-N4-(2-chloro-3-methoxypyrid-6-yl)-5-fluoro-2,4-pyrimidinediamine], under setting [5], the IC50 is more than 10 µM.

With `COc1ccc(Nc2nc(Nc3cc(C)cc(C)c3)ncc2F)nc1Cl` [Compound 879, N4-(2-Chloro-3-methoxypyrid-6-yl)-N2-(3,5-dimethylphenyl)-5-fluoro-2,4-pyrimidinediamine], the IC50 by setting is: under setting [5], less than 10 µM; under setting [6], less than 10 µM.
